Experimental data as given in patent publication US11117947B2, “Double-acylated GLP-1 derivatives” (Novo Nordisk A/S, priority 2011, dated 2021).
Numbered stars: 1 amine (or outer) side, 2 acyl side, 3 side chain; on linkers, the order of the positions; unused ones are H or OH. Side chains are listed from the residue outwards. Peptide text beside a SMILES is read from it. * marks the point of attachment. Decanoyl(10-(4-HOOC-PhO)) = O=C(O)c1ccc(OCCCCCCCCCC(=O)*)cc1; γGlu = O=C(O)[C@H](CCC(=O)[*:2])N[*:1]; C14 diacid = O=C(O)CCCCCCCCCCCCC(=O)*; AEEA = NCCOCCOCC(=O)O

Assay: Estimate of oral bioavailability: gut injection in rat (caprate), exposure in plasma
Assay type: in vivo
Conditions: injection in jejunum, 1000 uM in 55 mg/ml sodium caprate, plasma concentration (pM) at 30 min divided by dosing solution concentration (μM), mean n=4
Procedure: The GLP-1 derivatives were tested in a concentration of 1000 uM in a solution of 55 mg/ml sodium caprate.
Male Sprague Dawley rats with a body weight upon arrival of approximately 240 g were obtained from Taconic (Denmark) and assigned to the different treatments by simple randomisation, 4 rats per group.
The GLP-1 derivatives were administered in the jejunum either in the proximal part (10 cm distal for the duodenum) or in the mid-intestine (50 cm proximal for the cecum). A PE50-catheter, 10 cm long was inserted into the jejunum, forwarded at least 1.5 cm into the jejunum, and secured before dosing by ligature around the gut and the catheter with 3/0 suture distal to tip to prevent leak or catheter displacement. Catheter was placed without syringe and needle and 2 ml saline was administered into abdomen before closing the incision with wound clips.
100 μl of the respective GLP-1 derivative was injected into the jejunal lumen through the catheter with a 1 ml syringe. Subsequently, 200 μl of air was pushed into the jejunal lumen with another syringe to “flush” the catheter. This syringe was leaved connected to the catheter to prevent flow back into the catheter.
Blood samples (200 ul) were collected at desired intervals (usually at times 0, 10, 30, 60, 120 and 240 min) into EDTA tubes from the tail vein and centrifuged 5 minutes, 10000G, at 4° C. within 20 minutes. […] 12, p. 240-247. The donor beads were coated with streptavidin, while acceptor beads were conjugated with a monoclonal antibody recognising a mid-/C-terminal epitope of the peptide. Another monoclonal antibody, specific for the N-terminus, was biotinylated. The three reactants were combined with the analyte and formed a two-sited immuno-complex. Illumination of the complex released singlet oxygen atoms from the donor beads, which were channeled into the acceptor beads and triggered chemiluminescence which was measured in an Envision plate reader. The amount of light was proportional to the concentration of the compound.
After the blood sampling the rats were sacrificed under anaesthesia and the abdomen was opened to verify correct catheter placement.
The mean (n=4) plasma concentrations (pmol/l) were determined as a function of time.

With `CC[C@H](C)[C@H](NC(=O)[C@H](Cc1ccccc1)NC(=O)[C@H](CCCCNC(=O)COCCOCCNC(=O)COCCOCCNC(=O)CC[C@H](NC(=O)CCCCCCCCCOc1ccc(C(=O)O)cc1)C(=O)O)NC(=O)[C@H](CCCNC(=N)N)NC(=O)[C@@H](NC(=O)[C@H](C)NC(=O)[C@H](CCC(N)=O)NC(=O)CNC(=O)[C@H](CCC(=O)O)NC(=O)[C@H](CC(C)C)NC(=O)[C@H](Cc1ccc(O)cc1)NC(=O)[C@H](CO)NC(=O)[C@H](CO)NC(=O)[C@@H](NC(=O)[C@H](CC(=O)O)NC(=O)[C@H](CO)NC(=O)[C@@H](NC(=O)[C@H](Cc1ccccc1)NC(=O)[C@@H](NC(=O)CNC(=O)[C@H](CCC(=O)O)NC(=O)[C@H](C)NC(=O)[C@@H](N)Cc1c[nH]cn1)[C@@H](C)O)[C@@H](C)O)C(C)C)C(C)C)C(=O)N[C@@H](CCC(=O)O)C(=O)N[C@@H](Cc1c[nH]c2ccccc12)C(=O)N[C@@H](CC(C)C)C(=O)N[C@H](C(=O)N[C@@H](CCC(N)=O)C(=O)NCC(=O)N[C@@H](CCCCNC(=O)COCCOCCNC(=O)COCCOCCNC(=O)CC[C@H](NC(=O)CCCCCCCCCOc1ccc(C(=O)O)cc1)C(=O)O)C(=O)NCC(=O)N[C@@H](CCC(=O)O)C(=O)O)C(C)C` [Example 13, N^ε27-[2-[2-[2-[[2-[2-[2-[[(4S)-4-carboxy-4-[10-(4-carboxyphenoxy)decanoylamino]butanoyl]amino]ethoxy]ethoxy]acetyl]amino]ethoxy]ethoxy]acetyl], N^ε36-[2-[2-[2-[[2-[2-[2-[[(4S)-4-carboxy-4-[10-(4-carboxyphenoxy)decanoylamino]butanoyl]amino]ethoxy]ethoxy]acetyl]amino]ethoxy]ethoxy]acetyl]-[Val^25,Arg^26,Lys^27,Glu^30,Gln^34,Lys^36]-GLP-1-(7-37)-peptidyl-Glu] (H-HAEGTFTSDVSSYLEGQAVRK([AEEA-AEEA-γGlu-Decanoyl(10-(4-HOOC-PhO))])FIEWLVQGK([AEEA-AEEA-γGlu-Decanoyl(10-(4-HOOC-PhO))])GE-OH; N-terminus and C-terminus assumed) as the molecule, how does the “Dose-corrected exposure at 30 min” value read?
The value was 126.

With `CC[C@H](C)[C@H](NC(=O)[C@H](Cc1ccccc1)NC(=O)[C@H](CCCCNC(=O)CC[C@H](NC(=O)COCCOCCNC(=O)COCCOCCNC(=O)CCCCCCCCCCCCC(=O)O)C(=O)O)NC(=O)[C@H](CCCNC(=N)N)NC(=O)[C@H](C)NC(=O)[C@H](C)NC(=O)[C@H](CCC(N)=O)NC(=O)[C@H](CCCCNC(=O)CC[C@H](NC(=O)COCCOCCNC(=O)COCCOCCNC(=O)CCCCCCCCCCCCC(=O)O)C(=O)O)NC(=O)[C@H](CCC(=O)O)NC(=O)[C@H](CC(C)C)NC(=O)[C@H](Cc1ccc(O)cc1)NC(=O)[C@H](CO)NC(=O)[C@H](CO)NC(=O)[C@@H](NC(=O)[C@H](CC(=O)O)NC(=O)[C@H](CO)NC(=O)[C@@H](NC(=O)[C@H](Cc1ccccc1)NC(=O)[C@@H](NC(=O)CNC(=O)[C@H](CCC(=O)O)NC(=O)[C@H](C)NC(=O)[C@@H](N)Cc1c[nH]cn1)[C@@H](C)O)[C@@H](C)O)C(C)C)C(=O)N[C@@H](C)C(=O)N[C@@H](Cc1c[nH]cn1)C(=O)N[C@@H](CC(C)C)C(=O)N[C@H](C(=O)NCC(=O)O)C(C)C` [Example 14, N^ε22-[(4S)-4-carboxy-4-[[2-[2-[2-[[2-[2-[2-(13-carboxytridecanoylamino)ethoxy]ethoxy]acetyl]amino]ethoxy]ethoxy]acetyl]amino]butanoyl], N^ε27-[(4S)-4-carboxy-4-[[2-[2-[2-[[2-[2-[2-(13-carboxytridecanoylamino)ethoxy]ethoxy]acetyl]amino]ethoxy]ethoxy]acetyl]amino]butanoyl]-[Lys^22,Arg^26,Lys^27,His^31,Gly^34]-GLP-1-(7-34)-peptide] (H-HAEGTFTSDVSSYLEK([γGlu-AEEA-AEEA-C14 diacid])QAARK([γGlu-AEEA-AEEA-C14 diacid])FIAHLVG-OH; N-terminus and C-terminus assumed) as the molecule, how does the “Dose-corrected exposure at 30 min” value read?
The value was 121.

Which “Dose-corrected exposure at 30 min” value does the source give for `CC[C@H](C)[C@H](NC(=O)[C@H](Cc1ccccc1)NC(=O)[C@H](CCCCNC(=O)CC[C@H](NC(=O)COCCOCCNC(=O)COCCOCCNC(=O)CCCCCCCCCCCCC(=O)O)C(=O)O)NC(=O)[C@H](CCCNC(=N)N)NC(=O)[C@H](C)NC(=O)[C@H](CCCCNC(=O)CC[C@H](NC(=O)COCCOCCNC(=O)COCCOCCNC(=O)CCCCCCCCCCCCC(=O)O)C(=O)O)NC(=O)[C@H](CCC(N)=O)NC(=O)[C@H](CCC(=O)O)NC(=O)[C@H](CCC(=O)O)NC(=O)[C@H](CC(C)C)NC(=O)[C@H](Cc1ccc(O)cc1)NC(=O)[C@H](CO)NC(=O)[C@H](CO)NC(=O)[C@@H](NC(=O)[C@H](CC(=O)O)NC(=O)[C@H](CO)NC(=O)[C@@H](NC(=O)[C@H](Cc1ccccc1)NC(=O)[C@@H](NC(=O)CNC(=O)[C@H](CCC(=O)O)NC(=O)[C@H](C)NC(=O)[C@@H](N)Cc1c[nH]cn1)[C@@H](C)O)[C@@H](C)O)C(C)C)C(=O)N[C@@H](C)C(=O)N[C@@H](Cc1c[nH]cn1)C(=O)N[C@@H](CC(C)C)C(=O)N[C@H](C(=O)NCC(=O)O)C(C)C` [Example 22, N^ε24-[(4S)-4-carboxy-4-[[2-[2-[2-[[2-[2-[2-(13-carboxytridecanoylamino)ethoxy]ethoxy]acetyl]amino]ethoxy]ethoxy]acetyl]amino]butanoyl], N^ε27-[(4S)-4-carboxy-4-[[2-[2-[2-[[2-[2-[2-(13-carboxytridecanoylamino)ethoxy]ethoxy]acetyl]amino]ethoxy]ethoxy]acetyl]amino]butanoyl]-[Glu^22,Lys^24,Arg^26,Lys^27,His^31,Gly^34]-GLP-1-(7-34)-peptide] (H-HAEGTFTSDVSSYLEEQK([γGlu-AEEA-AEEA-C14 diacid])ARK([γGlu-AEEA-AEEA-C14 diacid])FIAHLVG-OH) here?
The value was 275.
